Earlier results in US20150346185A1, “DIAGNOSIS OF CYSTIC FIBROSIS” (priority 2012, published 2015).

Target: T1, Na+ channel ENaC (Homo sapiens, UniProt P37088+P51168+P51170)
T1 construct: from tissue; host or cells: human nasal epithelium (healthy individuals and cystic fibrosis patients)
Details: healthy patients, infusion of amiloride

T1 sequence (P51168 whole entry): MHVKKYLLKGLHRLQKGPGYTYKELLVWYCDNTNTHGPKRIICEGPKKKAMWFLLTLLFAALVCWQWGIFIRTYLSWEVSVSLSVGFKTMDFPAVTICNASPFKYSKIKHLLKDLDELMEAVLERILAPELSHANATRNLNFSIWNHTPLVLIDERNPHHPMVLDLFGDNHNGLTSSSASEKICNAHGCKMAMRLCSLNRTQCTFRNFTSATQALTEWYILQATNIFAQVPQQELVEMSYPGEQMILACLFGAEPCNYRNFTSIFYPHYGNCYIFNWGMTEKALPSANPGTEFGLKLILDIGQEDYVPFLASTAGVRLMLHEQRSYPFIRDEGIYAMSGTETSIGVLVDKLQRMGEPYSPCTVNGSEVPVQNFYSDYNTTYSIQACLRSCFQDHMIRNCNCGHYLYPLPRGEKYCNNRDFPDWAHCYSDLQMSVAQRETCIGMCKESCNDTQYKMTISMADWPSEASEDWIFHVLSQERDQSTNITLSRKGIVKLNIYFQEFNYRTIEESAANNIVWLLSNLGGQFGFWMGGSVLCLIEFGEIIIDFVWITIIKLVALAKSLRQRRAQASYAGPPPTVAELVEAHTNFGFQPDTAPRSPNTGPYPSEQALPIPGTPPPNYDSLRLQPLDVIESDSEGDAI
T1 sequence (P37088 whole entry): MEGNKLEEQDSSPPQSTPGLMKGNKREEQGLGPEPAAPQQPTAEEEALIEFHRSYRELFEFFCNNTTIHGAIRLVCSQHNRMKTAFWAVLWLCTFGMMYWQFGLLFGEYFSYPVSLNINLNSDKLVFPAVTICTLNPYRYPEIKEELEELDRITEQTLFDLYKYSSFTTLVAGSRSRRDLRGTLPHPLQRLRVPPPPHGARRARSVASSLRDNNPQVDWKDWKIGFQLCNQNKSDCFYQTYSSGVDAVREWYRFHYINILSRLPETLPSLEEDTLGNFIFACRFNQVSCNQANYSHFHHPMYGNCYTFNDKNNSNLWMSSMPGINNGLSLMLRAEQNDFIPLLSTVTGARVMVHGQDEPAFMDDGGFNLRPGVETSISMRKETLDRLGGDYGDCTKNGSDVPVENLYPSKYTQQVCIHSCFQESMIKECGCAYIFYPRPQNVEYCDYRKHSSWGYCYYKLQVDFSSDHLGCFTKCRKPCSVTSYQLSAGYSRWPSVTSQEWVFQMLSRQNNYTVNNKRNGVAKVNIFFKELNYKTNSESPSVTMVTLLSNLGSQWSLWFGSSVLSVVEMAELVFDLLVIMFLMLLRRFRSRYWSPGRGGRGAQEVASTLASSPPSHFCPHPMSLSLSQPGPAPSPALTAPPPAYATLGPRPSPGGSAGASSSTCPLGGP
T1 sequence (P51170 whole entry): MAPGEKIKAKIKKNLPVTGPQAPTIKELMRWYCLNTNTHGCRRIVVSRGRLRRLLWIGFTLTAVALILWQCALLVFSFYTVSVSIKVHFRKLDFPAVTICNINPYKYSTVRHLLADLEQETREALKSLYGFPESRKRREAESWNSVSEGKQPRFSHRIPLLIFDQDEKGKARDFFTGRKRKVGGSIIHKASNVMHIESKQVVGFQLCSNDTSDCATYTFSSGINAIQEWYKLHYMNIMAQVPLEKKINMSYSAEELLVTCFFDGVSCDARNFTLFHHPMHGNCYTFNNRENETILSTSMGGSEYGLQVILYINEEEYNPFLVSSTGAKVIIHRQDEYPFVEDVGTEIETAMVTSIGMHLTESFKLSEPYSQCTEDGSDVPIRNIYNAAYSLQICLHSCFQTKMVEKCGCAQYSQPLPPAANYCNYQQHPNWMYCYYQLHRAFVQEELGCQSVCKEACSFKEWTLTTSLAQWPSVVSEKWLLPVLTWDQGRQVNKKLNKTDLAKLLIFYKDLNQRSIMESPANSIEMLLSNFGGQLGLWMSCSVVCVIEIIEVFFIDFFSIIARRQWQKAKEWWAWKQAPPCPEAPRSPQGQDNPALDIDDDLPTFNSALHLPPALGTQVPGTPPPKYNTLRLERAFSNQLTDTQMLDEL

**Q.** Which “reduction of nasal transepithelial potential difference” value does the source give for `N=C(N)NC(=O)c1nc(Cl)c(N)nc1N` [amiloride] here?
**A.** 55%
